Molecular target: T1, Human BACE (Homo sapiens, UniProt P56817)
T1 construct: Recombinant BACE (extracellular domain, expressed in baculovirus and purified using standard methods); made in house
Assay: Test 1: Inhibition of Human BACE
Assay type: biochemical
Conditions: recombinant BACE extracellular domain, fluorescence-quenched APP-derived peptide substrate, acetate buffer pH 4.5
Method: Test 1: Inhibition of Human BACE
Recombinant BACE (extracellular domain, expressed in baculovirus and purified using standard methods) at 0.1-10 nM concentration is incubated with the test compound at various concentrations for 1 hour at room temperature in 10-100 mM acetate buffer, pH 4.5, containing 0.1% CHAPS. Synthetic fluorescence-quenched peptide substrate, derived from the sequence of APP and containing a suitable fluorophore-quencher pair is added to a final concentration of 1-5 μM and the increase in fluorescence is recorded at a suitable excitation/emission wavelength in a microplate spectro-fluorimeter for 5-30 minutes in 1-minute intervals. IC50 values are calculated from percentage of inhibition of BACE-activity as a function of the test compound concentration.

T1 sequence (P56817 46-457 limits assumed): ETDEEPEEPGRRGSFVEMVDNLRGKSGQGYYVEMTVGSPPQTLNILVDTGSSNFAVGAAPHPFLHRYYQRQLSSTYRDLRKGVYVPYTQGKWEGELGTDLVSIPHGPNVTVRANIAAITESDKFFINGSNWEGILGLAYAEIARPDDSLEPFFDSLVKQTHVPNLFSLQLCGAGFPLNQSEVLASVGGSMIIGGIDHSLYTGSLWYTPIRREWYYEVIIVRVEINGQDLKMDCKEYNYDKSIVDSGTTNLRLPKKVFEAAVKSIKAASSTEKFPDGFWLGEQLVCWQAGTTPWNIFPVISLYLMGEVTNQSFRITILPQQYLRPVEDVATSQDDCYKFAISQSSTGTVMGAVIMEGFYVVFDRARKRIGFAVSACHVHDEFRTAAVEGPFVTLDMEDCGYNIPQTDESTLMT

IC50: 23 µM
Compound: CC(=O)N[C@@H](Cc1ccc(Nc2cc(-c3ccccc3)ncn2)cc1)[C@H](O)CNC1(c2cccc(C(C)C)c2)CC1 [Example 2, N-{(1S,2R)-2-Hydroxy-3-[1-(3-isopropyl-phenyl)-cyclopropylamino]-1-[4-(6-phenyl-pyrimidin-4-ylamino)-benzyl]-propyl}-acetamide]

— US20100144741A1, “ETHANOLAMINE DERIVATIVES USEFUL AS BACE INHIBITORS” (priority 2006, published 2010)
